Consider one compound from ChEMBL document CHEMBL5576037, “Discovery of the first ataxia telangiectasia and Rad3-related (ATR) degraders for cancer treatment” (Eur J Med Chem, 2024).

Data set [1] addresses Phosphatidylinositol 4,5-bisphosphate 3-kinase catalytic subunit alpha isoform (Homo sapiens) (UniProt P42336). As to the kind of experiment: Induction of PI3K-alpha degradation in human LoVo cells at 0.16 to 10 uM incubated for 72 hrs by Western blot analysis. In kind it is cell-based. The settings on record: dose 0.16-10 µM. (In general: A western blot detects proteins with antibodies after separation by electrophoresis.)

Data set [2] deals with T1, Protein cereblon/Serine/threonine-protein kinase ATR (Homo sapiens, UniProt Q13535+Q96SW2). As to the kind of experiment: PROTAC activity at CRBN/ATR in human LoVo cells assessed as induction of ATR degradation at 2.5 uM preincubated with AZD6738 for 4 hrs followed by compound addition and measured after 48 hrs by Western blot analysis. It is filed as cell-based.
In data set [3] the target is T1, Protein cereblon/Serine/threonine-protein kinase ATR. Nature of the data set: PROTAC activity at CRBN/ATR in human LoVo cells assessed as induction of ATR degradation at 2.5 uM preincubated with MG132 for 4 hrs followed by compound addition and measured after 48 hrs by Western blot analysis. In kind it is cell-based.
For data set [4] the target is unchanged. As to the kind of experiment: PROTAC activity at CRBN/ATR in human LoVo cells assessed as increase in ATR-CRBN protein-protein interaction by co-immunoprecipitation analysis. In kind it is cell-based.
The subject of data set [5] is LoVo. As to the kind of experiment: Downregulation of total ATR protein level in human LoVo cells incubated for 72 hrs by Western blot analysis. In kind it is functional, cell-based. The settings on record: dose 0.16-10 µM.
Data set [6] can be described thus: Free drug concentration in tumor of BALB/c nude mouse xenografted with human LoVo cells at 25 mg/kg, ip administered as single dose and measured after 12 hrs by LC-MS/MS analysis. In kind it is ADME, organism-based. The settings on record: in vivo.
Data set [7] concerns LoVo. Nature of the data set: Antitumor activity against human LoVo cells xenografted in BALB/c nude mouse assessed as tumor growth inhibition at 12.5 mg/kg, ip administered […] for 15 days relative to control. In kind it is functional. As to conditions: 360 h, time 15 day, read-out: TGI.
Data set [8] can be described thus: Toxicity in BALB/c nude mouse xenografted with human LoVo cells assessed as effect on spleen at 12.5 to 25 mg/kg, ip administered twice daily for 15 days by H and E staining based analysis. It is filed as organism-based. As to conditions: in vivo, 360 h, dose 12.5-25 mg/kg, time 15 day. On the technique in general: A xenograft is tissue or cells of one species grown in another, often human tumour cells in immunodeficient mice.

For data set [9], the target named is T1, Protein cereblon/Serine/threonine-protein kinase ATR. Nature of the data set: In vivo PROTAC activity at CRBN/ATR in BALB/c nude mouse xenografted with human LoVo cells assessed as reduction in ATR phosphorylation at Thr1989 residue administered intraperitoneally once daily for 15 days by Western blot analysis. The settings on record: dose 12.5-25 mg/kg, route ip, time 15.0 day. In kind it is functional, organism-based.

Calls of active or inactive are those of the source. The calls are words filed in the database; no cut-off is given here.

As to `C[C@@H]1COCCN1c1cc(C2([S@@](C)(=O)=NC(=O)CCc3cn(CCCCCCCC(=O)Nc4cccc5c4C(=O)N(C4CCC(=O)NC4=O)C5=O)nn3)CC2)nc(-c2ccnc3[nH]ccc23)n1` (some centres undefined), the result in data set [1], in [2] and in [3] was inactive. The outcome in [4] was Active. The Activity entry in the data set with LoVo [5] is “Dose-Dependent Effect”; in data set [8], “Non-Toxic”; in data set [9] it was “Dose-Dependent Effect”. In addition, the “Drug uptake(free)” value in data set [6] is ~ 6 uM. Also, the inhibition in vivo at 12.5 mg/kg in the data set on LoVo [7] came to 39.5%.
